Measured values published in US8063033B2, “Therapeutic beta-lactams” (Allergan, Inc., priority 2008, dated 2011).

Test system: lashes and adjacent hairs of patients
Assay: Observation of eyelash/hair growth in glaucoma patients treated in one eye
Assay type: in vivo, human
Settings: glaucoma patient treated in one eye only
From the text: In the course of treating patients having glaucoma, treatment may only be appropriate in one eye. […] The lash appearance on the lids of the treated eyes would have appeared quite attractive if it represented a bilateral phenomenon. As a result of its asymmetric nature, the long lashes on one side could be construed as disturbing from a cosmetic standpoint. A systemic examination was preformed as a result of the asymmetric phenomenon. It soon became apparent that this altered appearance was not an isolated finding. […] Definite differences could be identified to varying degrees in the lashes and adjacent hairs of all patients who were taking the drug on a unilateral basis for longer than 6 months.
The changes in the lashes were apparent on gross inspection in several patients once attention was focused on the issue. In those with light colored hair and lashes, the differences were only seen easily with the aid of the high magnification and lighting capabilities of the slit lamp biomicroscope. In the course of glaucoma follow-up examination, attention is generally immediately focused on the eye itself. As a result of the high power magnification needed only one eye is seen at a time and the eye is seen at a high enough power that the lashes are not in focus. […]

CCNC(=O)CCC/C=C\C[C@@H]1[C@@H](/C=C/[C@@H](O)CCc2ccccc2)[C@H](O)C[C@@H]1O [bimatoprost]
lash appearance in treated eye versus non-treated eye: longer, thicker, and fuller
